A short description of data set [1]: Intrinsic in-vitro skin permeability of diltiazem (side-by-side diffusion cell). The format is in vitro ADME, hairless mouse. The note with it: skin permeation rate/solubility, mean and SD, n=3. The method, then:
About 2.5 cm×2.5 cm portion of freshly excised hairless mouse skin (5-7 week old, male) prepared as described in Example 4 above, was mounted between the two chambers of the side-by-side diffusion cell and securely clamped. […] 5% Trycol® solution in normal saline, prepared as described in Example 4 above, was introduced into the receptor compartment (the side facing the dermis side of the skin). Both donor and receptor compartments were maintained at 37° C. by a thermostatically controlled circulating water bath. At predetermined time intervals (usually at 3, 6, 12 and 24 hours) the entire volume of the receptor solution was withdrawn and immediately replaced with the same volume of fresh, drug-free Trycol® solution at 37° C. to maintain the […]. […] Slope of this line gave the value of skin permeation rate (mcg/cm^2 /hr).

The conditions of data set [2]: literature statement; cited from earlier work.
The procedure of data set [3]:
The model used is an in-vitro excised hairless mouse skin model which is known in the art. The permeation rates of TA-3090 through the excised skin were measured using a Franz diffusion cell.
In-vitro evaluation of transdermal patches was accomplished using an excised hairless mouse/Franz diffusion cell model (available from Crown Glass Company, Somerville, N.J.) as follows. Immediately following sacrifice by cervical dislocation (or by CO2 gas), a portion (about 3.5 cm×3.5 cm) of the full-thickness abdominal skin was carefully excised from the hairless mouse (5-7 week old, male). The dermal side of the skin was carefully cleaned of any adhering subcutaneous tissue and/or blood vessels. […]
At a predetermined time interval (usually 4, 8, 12 and 24 hours), the entire volume of the receptor solution was withdrawn and immediately replaced with the same volume of the fresh, drug-free Trycol solution at 37° C. to maintain the sink condition. The concentration of TA-3090 in the sample was determined by a sensitive HPLC method. From the concentration profiles of TA-3090 in the receptor compartment, the flux (mcg/cm^2) of skin permeation was calculated using a computer program and then plotted as a function of time (hour). […]

A short description of data set [4]: Intrinsic in-vitro skin permeability of TA-3090 at various pH conditions (side-by-side diffusion cell). The note with it: for Papp: mouse, skin permeation rate/solubility, mean and SD, n=3. Type of data set: in vitro ADME, hairless mouse. Here is the method:
(§1) TA-3090 skin permeability was determined using a freshly excised hairless mouse skin and a side-by-side type of diffusion cell (available from Crown Glass Co., Somerville, N.J.). About 2.5 cm×2.5 cm portion of freshly excised hairless mouse skin (5-7 week old, male), prepared as described in Example 4, was mounted between the two chambers of the side-by-side diffusion cell and securely clamped. Saturated solution (with some extra drug in suspension state) of TA-3090 free base in phosphate buffer solution maintained at a particular pH was introduced into the donor side (the side facing the stratum corneum). 5% Trycol® solution in normal saline, prepared as described in Example 4, was introduced in the receptor compartment (the side facing the dermis side of the skin). Both donor and receptor compartments were maintained at 37° C. by a thermostatically controlled circulating water bath. At predetermined time intervals (usually at 3, 6, 12 and 24 hours) the entire volume of the receptor solution was withdrawn and immediately replaced with the same volume of the fresh, drug-free Trycol® solution at 37° C. to maintain the sink condition. […] From the concentration profiles of TA-3090 in the receptor compartment, the flux (mcg/cm^2) of skin permeation was calculated using a computer program and then plotted as a function of time (hour). Slope of this line gave the value of skin permeation rate (mcg/cm^2 /hr).

The conditions of data set [5]: once-a-day oral dose; background statement; cited from earlier work.
Data set [6] can be described thus: Solubility of TA-3090 in donor solution. Type of data set: physicochemical. Conditions: aqueous buffer, phosphate buffer, 37° C., mean and SD, n=3. Here is the method:
as §1

The nature of the next data set: in vivo. The note with it: guinea pig, plasma, topical or ocular.
Data set [7] in a line: Aqueous solubility of TA-3090 free base with 5% PEG 20 Oleyl ether. The format is physicochemical. The note with it: with 5% PEG 20 Oleyl ether as solubilizer. The method, then: The aqueous solubility of TA-3090 free base was improved by the incorporation of 5% PEG 20 Oleyl ether as a solubilizer to maintain an effective sink condition required in the investigation, which simulates the biological sink achieved by hemoperfusion. […] Following this, the saline solution containing 5% w/w PEG 20 Oleyl ether (Trycol®) at 37° C. was introduced into the receptor compartment, which was thermostatically controlled at 37° C. by a circulating water bath.

In a further data set the test system is calcium channel. Conditions: background statement; cited from earlier work.

SMILES strings stand for the structures. Converted amounts (≈) assume the structure as drawn. Structures can show the parent of a compound that is named as a salt.

For the molecule `COc1ccc([C@@H]2Sc3ccccc3N(CCN(C)C)C(=O)[C@@H]2OC(C)=O)cc1` [diltiazem free base, diltiazem], the “Intrinsic Permeability” value in data set [1] is listed as 186.96 ± 49.74 (cm/hr) × 10^-5.

With `COc1ccc([C@@H]2Sc3ccccc3N(CCN(C)C)C(=O)[C@@H]2OC(C)=O)cc1` [diltiazem HCl, diltiazem hydrochloride], in data set [1] (hydrochloride), the “Intrinsic Permeability” value is 1.66 ± 0.43 (cm/hr) × 10^-5. Also, in [2], the “permeability through skin / percutaneous absorption” value is given as “poor percutaneous absorption”.

Usually Papp stands for a coefficient for how fast a substance crosses the barrier. Lower therefore signals slow passage. The term solubility denotes the dissolved amount per volume that the medium holds. A higher solubility goes with much dissolved substance. Take `COc1ccc([C@@H]2Sc3cc(Cl)ccc3N(CCN(C)C)C(=O)[C@@H]2OC(C)=O)cc1` [TA-3090, (+)(2S,3S)-3-acetoxy-8-chloro-5-(2-dimethylaminoethyl)-2,3-dihydro-2-(4-methoxyphenyl)-1,5-benzothiazepin-4-(5H)-one]: in [3], the “rate of administration from the transdermal delivery device” value was in the range of 0.6 to 29.62 mcg/cm^2 /hr. Moreover, the results for the Papp in [4] (donor side pH 5), in data set [4] (donor side pH 7) and in [4] (donor side pH 9) were 1.81 ×10⁻⁶ cm/s, 13.4 ×10⁻⁶ cm/s and 30.6 ×10⁻⁶ cm/s, respectively. Also, the “Skin Permeation Rate” value came out at 49.04 ± 8.76 mcg/cm^2 /hr in data set [4] (pH 5), 29.39 ± 11.61 mcg/cm^2 /hr in data set [4] (pH 7) and 6.75 ± 1.54 mcg/cm^2 /hr in data set [4] (pH 9). Moreover, the oral absorption entry in [5] was “incomplete oral absorption”. Also, the solubility in data set [6] (donor side pH 5) turned out to be 7730 ± 1130 µg/mL (≈ 17200 µM); in data set [6] (donor side pH 7), 600 ± 20 µg/mL (≈ 1340 µM); in data set [6] (donor side pH 9) it was 60 ± 4 µg/mL (≈ 134 µM). For the same molecule, the concentration at 4 h in the data set “in vivo” was 11.4 ± 4.09 ng/mL. Moreover, the concentration at 8 h in “in vivo” turned out to be 32.5 ± 4.56 ng/mL. Also, the concentration at 24 h in the data set “in vivo” stood at 75.6 ng/mL. For the same molecule, in “in vivo”, the concentration at 48 h was determined as 71.1 ± 43.1 ng/mL. In data set [7], the aqueous solubility result was “improved”. The vasodilating activity entry in the data set on calcium channel was “potent vasodilating activity”.

(Values after patent US5002773A, “Transdermal delivery of (+) (2S,3S)-3-acetoxy-8-chloro-5-(2-dimethylaminoethyl)-2,3-dihydro-2-(4-met hoxyphenyl)-1,5-benzothiazepin-4-(5H)-one” (Marion Merrell Dow Inc., priority 1989, dated 1991).)
